# System: S. carnosus TM300
# Assay: RNAseq differential gene expression
# Assay type: cell-based, Staphylococcus carnosus
# Protocol: For the RNAseq experiments, epilancin was added at sub-lethal concentration (0.5x MIC) to S. carnosus TM300 once the cultures reached an OD600 of 0.6. RNA was extracted 40 min after the treatment, using a FastRNA Pro Blue kit (MP Biomedicals). Both treated and parallel untreated samples were collected at the same time. Sequencing was performed at the Carver Biotechnology Center (UIUC). For RNAseq analysis, gene counts were read in to R (v3.1.1; [Team, 2014]), and 14/2441 genes were removed because they had fewer than 32 total counts across the six samples. edgeR’s (v3.6.7) TMM normalization ([Robinson and Oshlack, 2010]) plus negative binomial generalized log-linear model ([McCarthy et al., 2012]) was used to test for differential expression between treated and untreated groups, while accounting for pairing of U and T replicates from three different cultures. p-values were adjusted using the false discovery rate method ([Benjamini and Hochberg, 1995]).
substance,measurement,setting,value
Epilancin 15X,fold_change,"gene ileS, isoleucyl-tRNA synthetase",0.47
same,fold_change,"gene kbl, 2-amino-3-ketobutyrate coenzyme A ligase",0.46
same,fold_change,"gene mnhA, monovalent cation/H+ antiporter subunit A",0.48
same,fold_change,"gene murC, UDP-N-acetylmuramate--L-alanine ligase",0.4
same,fold_change,"gene ndk, nucleoside diphosphate kinase",0.44
same,fold_change,"gene nirC, NirC protein",0.43
same,fold_change,"gene nos, nitric oxide synthase oxygenase",0.43
same,fold_change,"gene opuAC, putative glycine betaine ABC transporter substrate-binding protein",0.43
same,fold_change,"gene pmi, mannose-6-phosphate isomerase",0.42
same,fold_change,"gene potA, putative spermidine/putrescine import ATP-binding protein PotA",0.41
same,fold_change,"gene prmC (SCA_1620), hypothetical protein",0.48
same,fold_change,"gene ptsG (glcA), glucose-specific phosphotransferase system enzyme II, factor IIA",0.42
same,fold_change,"gene purA, adenylosuccinate synthetase",0.45
same,fold_change,"gene purB, adenylosuccinate lyase",0.41
same,fold_change,"gene rex (SCA_1553), redox-sensing transcriptional repressor Rex",0.42
same,fold_change,"gene rimM, 16S rRNA-processing protein RimM",0.44
same,fold_change,"gene rplE, 50S ribosomal protein L5",0.47
same,fold_change,"gene rplF, 50S ribosomal protein L6",0.48
same,fold_change,"gene rplJ, 50S ribosomal protein L10",0.48
same,fold_change,"gene rplL, 50S ribosomal protein L7/L12",0.48
same,fold_change,"gene rplR, 50S ribosomal protein L18",0.47
same,fold_change,"gene rplX, 50S ribosomal protein L24",0.48
same,fold_change,"gene rpmD, 50S ribosomal protein L30",0.48
same,fold_change,"gene rpmG, 50S ribosomal protein L33",0.42
same,fold_change,"gene rpsE, 30S ribosomal protein S5",0.48
same,fold_change,"gene rpsF, 30S ribosomal protein S6",0.42
same,fold_change,"gene rpsH, 30S ribosomal protein S8",0.48
same,fold_change,"gene rpsR, 30S ribosomal protein S18",0.47
same,fold_change,"gene rpsT, 30S ribosomal protein S20",0.44
same,fold_change,"gene sdhB, succinate dehydrogenase iron-sulfur subunit",0.41
same,fold_change,"gene trmD, tRNA (guanine-N(1)-)-methyltransferase",0.44
same,fold_change,"gene trpD, anthranilate phosphoribosyltransferase",0.4
same,fold_change,"gene trpS, tryptophanyl-tRNA synthetase",0.47
same,fold_change,"gene tyrA, prephenate dehydrogenase",0.41
same,fold_change dps,general stress protein 20U,6.95
same,fold_change Sca_1447,glycosyltransferase,3.57
same,fold_change Sca_0051,glyoxalase/bleomycin resistance protein/dioxygenase superfamily protein,6.15
same,fold_change Sca_0808,glyoxalase/bleomycin resistance protein/dioxygenase superfamily protein (fragment 2),2.14
same,fold_change gloA,glyoxylase family protein,3.75
same,fold_change grpE,heat shock protein GrpE,2.94
same,fold_change vraS,histidine kinase sensor,7.95
same,fold_change Sca_0031,hypothetical protein,3.09
same,fold_change Sca_0046,hypothetical protein,2.17
same,fold_change Sca_0052,hypothetical protein,5.71
same,fold_change Sca_0054,hypothetical protein,2.52
same,fold_change Sca_0067,hypothetical protein,4.42
same,fold_change Sca_0071,hypothetical protein,7.07
same,fold_change Sca_0072,hypothetical protein,7.15
same,fold_change Sca_0096,hypothetical protein,3.48
same,fold_change Sca_0097,hypothetical protein,2.35
same,fold_change Sca_0098,hypothetical protein,2.28
same,fold_change Sca_0100,hypothetical protein,2.47
same,fold_change Sca_0114,hypothetical protein,3.35
same,fold_change Sca_0117,hypothetical protein,2.03
same,fold_change Sca_0128,hypothetical protein,0.49
same,fold_change Sca_0133,hypothetical protein,2.43
same,fold_change Sca_0179,hypothetical protein,5.25
same,fold_change Sca_0238,hypothetical protein,5.63
same,fold_change Sca_0248,hypothetical protein,3.2
same,fold_change Sca_0264,hypothetical protein,2.54
same,fold_change Sca_0265,hypothetical protein,3.04
same,fold_change Sca_0279,hypothetical protein,2.02
same,fold_change Sca_0299,hypothetical protein,4.24
same,fold_change Sca_0324,hypothetical protein,2.17
same,fold_change Sca_0328,hypothetical protein,6.61
same,fold_change Sca_0329,hypothetical protein,5.2
same,fold_change Sca_0356,hypothetical protein,4.74
same,fold_change Sca_0422,hypothetical protein,2.12
same,fold_change Sca_0454,hypothetical protein,3.4
same,fold_change Sca_0459,hypothetical protein,3.3
same,fold_change Sca_0468,hypothetical protein,2.78
same,fold_change Sca_0471,hypothetical protein,4
same,fold_change Sca_0472,hypothetical protein,3.68
same,fold_change Sca_0473,hypothetical protein,4.68
same,fold_change Sca_0474,hypothetical protein,4.61
same,fold_change Sca_0477,hypothetical protein,4.52
same,fold_change Sca_0478,hypothetical protein,3.97
same,fold_change Sca_0481,hypothetical protein,4.58
same,fold_change Sca_0482,hypothetical protein,3.77
same,fold_change Sca_0483,hypothetical protein,3.93
same,fold_change Sca_0484,hypothetical protein,3.96
same,fold_change Sca_0485,hypothetical protein,3.21
same,fold_change Sca_0487,hypothetical protein,4.14
same,fold_change Sca_0488,hypothetical protein,2.02
same,fold_change Sca_0489,hypothetical protein,2.6
same,fold_change Sca_0490,hypothetical protein,2.76
same,fold_change Sca_0491,hypothetical protein,2.13
same,fold_change Sca_0525,hypothetical protein,2.45
same,fold_change Sca_0529,hypothetical protein,2.16
same,fold_change Sca_0643,hypothetical protein,3.47
same,fold_change Sca_0647,hypothetical protein,2.16
same,fold_change Sca_0648,hypothetical protein,2.05
same,fold_change Sca_0666,hypothetical protein,5.78
same,fold_change Sca_0700,hypothetical protein,2.96
same,fold_change Sca_0703,hypothetical protein,5.58
same,fold_change Sca_0752,hypothetical protein,2.97
same,fold_change Sca_0778,hypothetical protein,3.33
same,fold_change Sca_0834,hypothetical protein,3.67
same,fold_change Sca_0844,hypothetical protein,5.22
same,fold_change Sca_0862,hypothetical protein,2.79
same,fold_change Sca_0868,hypothetical protein,2.53
same,fold_change Sca_0877,hypothetical protein,2.02
same,fold_change Sca_0934,hypothetical protein,3.62
same,fold_change Sca_0935,hypothetical protein,2.43
same,fold_change Sca_0959,hypothetical protein,2.05
same,fold_change Sca_0965,hypothetical protein,2.37
same,fold_change Sca_0993,hypothetical protein,2.38
same,fold_change Sca_1021,hypothetical protein,2.3
same,fold_change Sca_1081,hypothetical protein,2.09
same,fold_change Sca_1154,hypothetical protein,2.08
same,fold_change Sca_1155,hypothetical protein,2.03
same,fold_change Sca_1209,hypothetical protein,3.24
same,fold_change Sca_1210,hypothetical protein,2.68
same,fold_change Sca_1212,hypothetical protein,2.1
same,fold_change Sca_1236,hypothetical protein,5.11
same,fold_change Sca_1237,hypothetical protein,5.24
same,fold_change Sca_1261,hypothetical protein,4.39
same,fold_change Sca_1262,hypothetical protein,4.13
same,fold_change Sca_1263,hypothetical protein,3.92
same,fold_change Sca_1265,hypothetical protein,6.01
same,fold_change Sca_1328,hypothetical protein,2.71
same,fold_change Sca_1396,hypothetical protein,2.4
same,fold_change Sca_1420,hypothetical protein,2.04
same,fold_change Sca_1461,hypothetical protein,6.62
same,fold_change Sca_1500,hypothetical protein,2.03
